Experimental data from patent US9714247B2, “Multiple kinase pathway inhibitors” (Mannkind Corporation, priority 2012, dated 2017).
Where two headings read alike, the source gives them in different places.

Tests used:
[1] = biological target: T1, Src (Homo sapiens (Human), UniProt P12931); experiment: biochemical
[2] = system: DoHH2; experiment: CellTiter-Glo proliferation/viability assay; assay type: cell-based, human; settings: Homo sapiens, DOHH-2
[3] = system: PLCγ2 phosphorylation in Ramos cells; experiment: PLCγ2 phosphorylation by flow cytometry; assay type: cell-based, human; settings: Homo sapiens, flow cytometry; for inhibition at 0.3 µM: anti-phospho PLCγ2 (Tyr759), read-out: pPLCγ % inhibition
Method: Ramos cells were cultured in RPMI 1640 media with 10% FBS and were starved overnight (18 h) in 1% FBS containing media and on the next day pretreated with inhibitor for 2 h before stimulation. Cells were stimulated to induce BTK network dependent signal transduction pathways using mouse anti-human IgM (final concentration 10 ug/ml; Invitrogen) antibodies and 3.3 mM H2O2 mixture for 2 minutes followed by F(Ab) fragment that cross-linked the anti-IgM antibody (final concentration 10 ug/ml), and 3.3 mM H2O2 for 8 minutes. Cell lysates were prepared in lysis buffer containing protease and phosphatase inhibitors, quantified using the BCA protein assay kit (Pierce) and used for Western blotting. Antibodies specifically targeted to the molecules of interest, PLCγ2 phosphorylated at Tyr1217 and total PLCγ2, (Cell Signaling Technology) were used in a standard Western blotting procedure.
PLCγ2 phosphorylation was also assessed by flow cytometry. Cells were similarly stimulated and following stimulation, Cytofix buffer (Becton Dickinson) was added, cells were centrifuged and the cell pellets incubated on ice with Phosflow perm buffer III (Becton Dickinson). These cell pellets were washed with Perm/Wash buffer (Becton Dickinson); resuspended and labeled for flow cytometry analysis in a staining mixture containing Perm/Wash buffer and PE-labeled anti-phosphoPCLγa2 (Tyr1217) antibody (Becton Dickinson). The samples were washed with Perm/Wash buffer and analyzed on a FACS Calibur flow cytometer using CellQuest Pro software. As mentioned for the Western blot experiments, phosphorylation of PLCγ2 at Tyr1217 along with Tyr753, Tyr759 and Tyr1197 is correlated with increased PLCγ2 activity. The readout for BTK network signaling was inhibition of phosphorylation of PLCγ2. Cells were gated to exclude dead or dying cells. Fluorescence signals from the antibody staining were plotted in logarithmic units and data was analyzed using Cellquest Pro software. […] An ED50 was calculated based on the geometric mean of fluorescence intensity observed for treatment for four different concentrations of the inhibitors (see Table 7 and FIG. 6). […] Thus treatment with amino naphthyridinones inhibits PLCγ2 phosphorylation consistent with inhibition of BTK and/or LYN activity.
Following stimulation, cells were prepared for analysis by flow cytometry as described above. In short, cells were fixed and permeabilized using Cytofix buffer, Phosflow perm buffer and Perm/Wash buffer (Becton Dickinson). The cells were stained with PE-labeled anti-phosphoPCLγ2 (Tyr759) antibody (Becton Dickinson) and analyzed on a FACS Calibur flow cytometer using CellQuest Pro software. […] Thus aminonaphthyridinones are useful for the indirect inhibition of PLCγ2 phosphorylation.

[4] = biological target: T2, Lyn (Homo sapiens (Human), UniProt P07948); experiment: biochemical
T2 sequence (P07948 whole entry): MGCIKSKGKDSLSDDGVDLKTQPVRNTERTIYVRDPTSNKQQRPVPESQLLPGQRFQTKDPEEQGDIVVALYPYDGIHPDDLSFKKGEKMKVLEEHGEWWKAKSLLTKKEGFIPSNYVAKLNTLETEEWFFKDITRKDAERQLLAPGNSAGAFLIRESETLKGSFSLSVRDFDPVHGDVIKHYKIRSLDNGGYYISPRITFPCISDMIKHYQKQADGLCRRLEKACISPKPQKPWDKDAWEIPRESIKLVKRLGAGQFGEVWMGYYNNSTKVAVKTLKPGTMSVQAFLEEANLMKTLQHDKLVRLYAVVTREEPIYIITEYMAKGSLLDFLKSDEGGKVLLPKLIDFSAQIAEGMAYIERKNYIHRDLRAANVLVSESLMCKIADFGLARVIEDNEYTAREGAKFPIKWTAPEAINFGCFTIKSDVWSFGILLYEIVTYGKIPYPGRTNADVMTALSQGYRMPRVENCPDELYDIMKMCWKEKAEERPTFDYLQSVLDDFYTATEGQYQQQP

[5] = system: Ramos; experiment: CellTiter-Glo proliferation/viability assay; assay type: cell-based, human; settings: Homo sapiens, Ramos, read-out: Ramos EC50
[6] = system: DoHH2 cells; settings: treated 24 hours
[7] = system: phosphorylation of SFKs in Ramos cells; experiment: SFK phosphorylation (Tyr 416) by flow cytometry; assay type: cell-based, human; settings: Homo sapiens, 0.3 uM, flow cytometry, SFK phosphorylated at Tyr 416, read-out: pSRC % inhibition
Method: Ramos cell lysates from stimulated and unstimulated cells were analyzed for the levels of phosphorylated SRC family members. As described in Example 82 (above), cells were pretreated for 2 hours with an amino naphthyridinones and then stimulated with anti-IgM antibody and H2O2, protein lysates were prepared, quantified and used for Western blotting. A commercially available antibody that detects Src phosphorylated at Tyr 416 (Cell Signalling) and may cross-react with other Src family members such as Lyn, Fyn, Lck, Yes and Hck when phosphorylated at equivalent sites was used for Western blot analysis. The molecular weights of SFK family members are quite similar (in the 55-60 kDa range) and different family members cannot be resolved by the conditions used for the Western blot. […] The procedure can be similarly adapted for flow cytometric analysis as with the PLC-γ2 assay in Example 82. Ramos cells were incubated with Compound 1 for 2 hrs in RPMI media with 5% FBS prior to stimulation stimulated with H2O2/anti-IgM/F(Ab) for 10 minutes. Cells were evaluated by FACS analysis using anti-pSRC antibody and FITC-conjugated goat anti-rabbit secondary antibody following overnight storage at 4° C. in BD perm/wash buffer.
Ramos cells were prepared for flow cytometry analysis as described in example 82, and stained with a commercially available antibody that detects SFK phosphorylated at Tyr 416, followed by Alexa Fluor 488 conjugated secondary antibody. […] Thus amino naphthyridinones are useful in the inhibition of the phosphorylation of SFKs.

[8] = biological target: T1, Src; settings: read-out: Src IC50
[9] = biological target: T2, Lyn; settings: read-out: Lyn IC50
[10] = system: DoHH2; experiment: Apoptosis by flow cytometry (Annexin V / 7AAD); assay type: cell-based, human; settings: Table 6; for Percent Apoptosis at 2 uM: DOHH2, 2 uM; for Percent Apoptosis at 5 uM: DOHH2, 5 uM
Text: Activation of Tec family kinases including BTK, and/or Src kinase family members, regulates cell survival and cell death in normal B cells, lymphomas, and solid tumors. Apoptosis is a programmed cell death characterized by specific changes in cell morphology. […] Staurosporine was used as a positive control for apoptosis. […] Table 6 illustrates that several amino naphthyridinones induce significant apoptosis in DoHH2 cells.

[11] = biological target: BTK (Homo sapiens (Human), UniProt Q06187)
Chain of BTK (Q06187 whole entry): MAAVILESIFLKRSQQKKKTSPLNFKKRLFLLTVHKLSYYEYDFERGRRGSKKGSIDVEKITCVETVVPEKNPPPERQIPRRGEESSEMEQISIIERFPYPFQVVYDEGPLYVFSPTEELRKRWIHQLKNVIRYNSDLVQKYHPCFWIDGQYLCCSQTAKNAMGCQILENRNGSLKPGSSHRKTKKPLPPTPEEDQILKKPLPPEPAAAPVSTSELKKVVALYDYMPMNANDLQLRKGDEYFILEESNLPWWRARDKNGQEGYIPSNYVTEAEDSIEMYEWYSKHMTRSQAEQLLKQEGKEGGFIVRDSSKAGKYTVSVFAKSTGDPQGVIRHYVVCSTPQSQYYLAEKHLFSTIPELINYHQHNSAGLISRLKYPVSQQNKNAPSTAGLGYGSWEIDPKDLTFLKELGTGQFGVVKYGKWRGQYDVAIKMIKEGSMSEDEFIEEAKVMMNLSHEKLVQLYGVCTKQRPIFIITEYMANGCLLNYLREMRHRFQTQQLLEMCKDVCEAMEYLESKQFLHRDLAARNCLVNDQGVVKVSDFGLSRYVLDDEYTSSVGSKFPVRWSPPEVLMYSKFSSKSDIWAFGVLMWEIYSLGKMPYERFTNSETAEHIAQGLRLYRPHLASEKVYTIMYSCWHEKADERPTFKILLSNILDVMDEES

T1 sequence (P12931 whole entry, looked up): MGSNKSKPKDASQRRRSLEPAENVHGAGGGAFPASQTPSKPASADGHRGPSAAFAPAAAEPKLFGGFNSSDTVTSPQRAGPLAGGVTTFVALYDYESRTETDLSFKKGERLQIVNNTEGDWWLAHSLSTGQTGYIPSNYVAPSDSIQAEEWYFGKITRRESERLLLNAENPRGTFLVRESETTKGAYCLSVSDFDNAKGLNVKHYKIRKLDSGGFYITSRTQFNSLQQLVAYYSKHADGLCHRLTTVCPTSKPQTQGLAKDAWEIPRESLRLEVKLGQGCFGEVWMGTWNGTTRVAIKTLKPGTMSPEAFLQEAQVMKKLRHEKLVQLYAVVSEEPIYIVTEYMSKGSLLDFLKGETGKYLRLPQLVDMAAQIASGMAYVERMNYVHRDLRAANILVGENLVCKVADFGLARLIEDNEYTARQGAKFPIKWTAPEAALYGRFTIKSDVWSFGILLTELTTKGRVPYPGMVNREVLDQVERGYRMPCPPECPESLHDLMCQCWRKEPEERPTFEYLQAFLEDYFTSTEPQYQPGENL

| SMILES | IC50 [1] | EC50 ([2]; 48 hrs, read-out: DoHH2 EC50) | EC50 ([2]; Table 4, DoHH2 cells, read-out: EC50 (Proliferation)) | inhibition at 0.3 µM [3] | IC50 [4] | EC50 ([5]; 48 h) | Effect on Cell Cycle [6] | inhibition at 0.3 µM [7] | IC50 [8] | IC50 [9] | Percent Apoptosis at 2 uM [10] | Percent Apoptosis at 5 uM [10] | EC50 ([5]; 48 hrs) | IC50 ([11]; read-out: BTK IC50) | EC50 ([3]; anti-phospho PLCγ2 (Tyr1217), four concentrations, read-out: Inhibition of phosphorylation of PLC-γ2 EC50) | IC50 [11] | IC50 ([4]; Lyn IC50) |
| --- | --- | --- | --- | --- | --- | --- | --- | --- | --- | --- | --- | --- | --- | --- | --- | --- | --- |
| CCN(CC)CCOc1ccc(Nc2cc3c(cn2)cc(-c2ccccc2)c(=O)n3C2CCCC2)nc1 [Compound 23, 1-cyclopentyl-7-(5-(2-(diethylamino)ethoxy)pyridin-2-ylamino)-3-phenyl-1,6-naphthyridin-2(1H)-one] | 100 to 1000 nM | < 1000 nM | < 1000 nM | 32% | 100 to 1000 nM | 1000 to 10000 nM | G1 Arrest | 5% | – | – | – | – | – | – | – | – | – |
| CCN(CC)CCOc1ccc(Nc2cc3c(cn2)cc(-c2ccccc2)c(=O)n3CCOC)nc1 [Compound 24, 7-(5-(2-(diethylamino)ethoxy)pyridin-2-ylamino)-1-(2-methoxyethyl)-3-phenyl-1,6-naphthyridin-2(1H)-one] | – | < 1000 nM | – | – | – | – | – | – | < 100 nM | < 100 nM | 34.76% | 46.4% | 1000 to 10000 nM | < 100 nM | – | – | – |
| CCN(CC)CCOc1ccc(Nc2cc3c(cn2)cc(C(C)C)c(=O)n3C(C)C)nc1 [Compound 34, 7-[5-(2-Diethylamino-ethoxy)-pyridin-2-ylamino]-1,3-diisopropyl-1H-[1,6]naphthyridin-2-one] | – | – | – | – | – | 1000 to 10000 nM | No Arrest | – | < 100 nM | < 100 nM | 19.54% | 46.27% | – | – | – | – | – |
| CCn1c(=O)c(-c2ccccc2)cc2cnc(Nc3ccc(N4CCN(C)CC4)cn3)cc21 [Compound 43, 1-Ethyl-7-[5-(4-methyl-piperazin-1-yl)-pyridin-2-ylamino]-3-phenyl-1H-[1,6]naphthyridin-2-one] | – | < 1000 nM | – | – | – | – | – | – | < 100 nM | < 100 nM | 27.26% | 29.38% | 1000 to 10000 nM | – | 190 nM | – | – |
| CCn1c(=O)c(-c2c(F)cccc2F)cc2cnc(Nc3ccc(OCCN4CCOCC4)cn3)cc21 [Compound 94, 3-(2,6-difluorophenyl)-1-ethyl-7-((5-(2-morpholinoethoxy)pyridin-2-yl)amino)-1,6-naphthyridin-2(1H)-one] | – | < 1000 nM | – | 59% | – | – | – | 9% | < 100 nM | < 100 nM | – | – | 1000 to 10000 nM | < 100 nM | – | – | – |
| CCn1c(=O)c(-c2c(F)cccc2F)cc2cnc(Nc3ccc(CN4CCN(C)CC4)cn3)cc21 [Compound 96, 3-(2,6-difluorophenyl)-1-ethyl-7-((5-((4-methylpiperazin-1-yl)methyl)pyridin-2-yl)amino)-1,6-naphthyridin-2(1H)-one] | – | < 1000 nM | – | 86% | – | 1000 to 10000 nM | – | 51% | < 100 nM | < 100 nM | – | – | – | – | – | 100 to 1000 nM | – |
| CCN(CC)CCOc1ccc(Nc2cc3c(cn2)cc(-c2ccc(F)cc2F)c(=O)n3CC)nc1 [Compound 100, 7-((5-(2-(diethylamino)ethoxy)pyridin-2-yl)amino)-3-(2,4-difluorophenyl)-1-ethyl-1,6-naphthyridin-2(1H)-one] | – | < 1000 nM | – | 70% | – | – | – | 30% | < 100 nM | < 100 nM | – | – | 1000 to 10000 nM | < 100 nM | – | – | – |
| CCN(CC)CCOc1ccc(Nc2cc3c(cn2)cc(-c2ccccc2C(F)(F)F)c(=O)n3CC)nc1 [Compound 107, 7-((5-(2-(diethylamino)ethoxy)pyridin-2-yl)amino)-1-ethyl-3-(2-(trifluoromethyl)phenyl)-1,6-naphthyridin-2(1H)-one] | – | < 1000 nM | – | 48% | – | > 10000 nM | – | 28% | < 100 nM | – | – | – | – | < 100 nM | – | – | 100 to 1000 nM |
| CCN(CC)CCOc1ccc(Nc2cc3c(cn2)cc(-c2c(O)cccc2Cl)c(=O)n3CC)nc1 [Compound 109, 3-(2-chloro-6-hydroxyphenyl)-7-((5-(2-(diethylamino)ethoxy)pyridin-2-yl)amino)-1-ethyl-1,6-naphthyridin-2(1H)-one] | – | < 1000 nM | – | 91% | – | – | – | 65% | < 100 nM | < 100 nM | – | – | 1000 to 10000 nM | < 100 nM | – | – | – |
| CCn1c(=O)c(-c2c(F)cccc2Cl)cc2cnc(Nc3ccc(N(C)C4CCN(C)CC4)cn3)cc21 [Compound 115, 3-(2-chloro-6-fluorophenyl)-1-ethyl-7-((5-(methyl(1-methylpiperidin-4-yl)amino)pyridin-2-yl)amino)-1,6-naphthyridin-2(1H)-one] | – | < 1000 nM | – | 97% | – | 1000 to 10000 nM | – | 80% | < 100 nM | < 100 nM | – | – | – | < 100 nM | – | – | – |
| CN1CCC(N(C)c2ccc(Nc3cc4c(cn3)cc(-c3c(F)cccc3F)c(=O)n4C)nc2)CC1 [Compound 135, 3-(2,6-difluorophenyl)-1-methyl-7-((5-(methyl(1-methylpiperidin-4-yl)amino)pyridin-2-yl)amino)-1,6-naphthyridin-2(1H)-one] | – | < 1000 nM | – | 82% | – | 1000 to 10000 nM | – | 49% | < 100 nM | < 100 nM | – | – | – | < 100 nM | – | – | – |
| CN1CCC(N(C)c2ccc(Nc3cc4c(cn3)cc(-c3c(F)cccc3F)c(=O)n4C3CC3)nc2)CC1 [Compound 136, 1-cyclopropyl-3-(2,6-difluorophenyl)-7-((5-(methyl(1-methylpiperidin-4-yl)amino)pyridin-2-yl)amino)-1,6-naphthyridin-2(1H)-one] | – | < 1000 nM | – | 85% | – | 1000 to 10000 nM | – | 55% | < 100 nM | < 100 nM | – | – | – | < 100 nM | – | – | – |
| CN1CCC(N(C)c2ccc(Nc3cc4c(cn3)cc(-c3c(F)cccc3F)c(=O)n4C3CCC3)nc2)CC1 [Compound 138, 1-cyclobutyl-3-(2,6-difluorophenyl)-7-((5-(methyl(1-methylpiperidin-4-yl)amino)pyridin-2-yl)amino)-1,6-naphthyridin-2(1H)-one] | – | < 1000 nM | – | 99% | – | 1000 to 10000 nM | – | 86% | < 100 nM | < 100 nM | – | – | – | < 100 nM | – | – | – |
